Experimental data published in BindingDB's records for doi:10.1021/jm980254j (Georgetown University Medical Center, 1998).
pIC50: −log10 of the molar value.

Biological target: phosphoinositide-specific phospholipase C (Bos taurus)
Experiment: In vitro inhibitory activity against bovine Phosphoinositide specific phospholipase C (PI-PLC)

In the case of `CCCCCCCCCCCCCCCC(=O)OC[C@H](COP(=O)(O)OC1C(O)C(O)C(O)C(F)C1O)OC(=O)CCCCCCCCCCCCCCC` (stereo partly drawn) [Hexadecanoic acid (R)-2-[(3-fluoro-2,4,5,6-tetrahydroxy-cyclohexyloxy)-hydroxy-phosphoryloxy]-1-hexadecanoyloxymethyl-ethyl ester], the pIC50 was 5.10.
